This note sets out measurements from ChEMBL document CHEMBL3400040, “Antileishmanial pharmacomodulation in 8-nitroquinolin-2(1H)-one series” (Bioorg Med Chem, 2015).

The structures appear in SMILES notation.

Data set [1] concerns Leishmania donovani. Put plainly: Antileishmanial activity against intracellular amastigote stage of Leishmania donovani MHOM/IN/00/DEVI infected in human THP1 cells assessed as decrease infected macrophages after 120 hrs by microscopy. The class given is functional, organism-based. The note with it: THP-1, 120 h.
Data set [2] has as its system Leishmania donovani. Put plainly: Antileishmanial activity against promastigote stage of Leishmania donovani MHOM/IN/00/DEVI assessed as inhibition of metabolic activity after 72 hrs by MTT assay. Type of data set: functional, organism-based.
Data set [3] can be described thus: (§1) Cytotoxicity against human HepG2 cells after 72 hrs by MTT assay. The class given is cell-based. The following applies: HepG2 cells. On the technique in general: Formazan colour is commonly taken as a measure of viable cells.
A short description of data set [4]: Selectivity index, CC50 for human HepG2 cells to IC50 for promastigote stage of Leishmania donovani MHOM/IN/00/DEVI. Type of data set: functional.
For the next data set, the system named is HepG2. The description is as §1. Type of data set: cell-based. The following applies: hepg2, 72 h.
The subject of another data set is Leishmania infantum. Description: Antileishmanial activity against intracellular amastigote stage of Leishmania infantum MHOM/MA/67/ITMAP-263 expressing luciferase infected in mouse J774A1 cells assessed as inhibition of metabolic activity after 120 hrs by luminescence assay. Type of data set: functional, organism-based. The note with it: MHOM/MA/67/ITMAP-263, J774.A1, 120 h.

Data set [5] in a line: Cytotoxicity against mouse J774A.1 cells after 72 hrs by MTT assay. The class given is cell-based. The note with it: J774.1, 72 h.
The test system of a further data set is THP-1. Description: Cytotoxicity against human THP1 cells after 72 hrs by MTT assay. The following applies: THP-1, 72 h. The class given is cell-based.
Setting [6] is: Leishmania donovani, MHOM/IN/00/DEVI, 72 h, read-out: IC50.

One may read the IC50 as the midpoint of a concentration-inhibition curve. As to `O=C(c1cccc([N+](=O)[O-])c1)c1ccc2ccc(/C=C/c3ccc(O)c(O)c3)nc2c1O`, in the data set with Leishmania donovani [1], the IC50 was 1.22 µM.

As to `O=[N+]([O-])c1c(CS(=O)(=O)c2ccccc2)nc2c(Br)cc(Br)cn12`, the IC50 in the data set with Leishmania donovani [1] is 5.5 µM.

As to `Cc1nc2c(Cl)cccc2c(O)c1CN1CCCCC1C` (stereo not given), the IC50 with Leishmania donovani [1] was found to be 0.06 µM.

By CC50 is commonly meant the concentration giving 50% cytotoxicity. Read a low CC50 as greater toxicity to the cells. Regarding `Nc1cccc2ccc(=O)[nH]c12`, in the data set with Leishmania donovani [2] (setting [6]), the IC50 was more than 50 µM. This compound also displayed a CC50 at 72 h in data set [3] of more than 100 µM.

On to `O=[N+]([O-])c1cccc2c(Br)cc(Br)nc12`, for which the IC50 in the data set with Leishmania donovani [2] (setting [6]) was more than 50 µM. The compound also returned a cytotoxic concentration (CC50) at 72 h in data set [3] of more than 100 µM.

Regarding `O=c1cc(Br)c2cccc([N+](=O)[O-])c2[nH]1`, the IC50 in the data set on Leishmania donovani [2] (setting [6]) stood at 9.6 µM. For the same compound, in data set [3], the CC50 at 72 h is 27.1 µM.

For `O=c1cc(C#Cc2ccccc2)c2cccc([N+](=O)[O-])c2[nH]1`, in the data set with Leishmania donovani [2] (setting [6]), the IC50 was determined as 2.7 µM. Further, in data set [3], the CC50 at 72 h turned out to be 11.6 µM. Further, the “Ratio CC50/IC50” value in data set [4] is listed as 4.4.

With `O=c1cc(C#Cc2ccc(Cl)cc2)c2cccc([N+](=O)[O-])c2[nH]1`, in the data set on Leishmania donovani [2], the IC50 result is “ND(Insoluble)”. Also, in the data set on HepG2, the CC50 result was “ND(Insoluble)”.

Take `COc1cccc(C#Cc2cc(=O)[nH]c3c([N+](=O)[O-])cccc23)c1`: the IC50 in the data set with Leishmania donovani [2] (setting [6]) was more than 10 µM. The compound further came in with a CC50 at 72 h in data set [3] of more than 10 µM.

On to `O=c1cc(C#CCOc2ccccc2)c2cccc([N+](=O)[O-])c2[nH]1`, for which, in the data set on Leishmania donovani [2] (setting [6]), the IC50 is 1.4 µM. In data set [3], this compound came in with a CC50 at 72 h of 1.8 µM. Besides, the “Ratio CC50/IC50” value in data set [4] was 1.3.

With `O=c1cc(C#CCO)c2cccc([N+](=O)[O-])c2[nH]1`, the half-maximal inhibitory concentration (IC50) with Leishmania donovani [2] (setting [6]) worked out at 2.4 µM. In addition, it took 2.1 µM to reach half-maximal cytotoxicity in data set [3] (CC50 at 72 h). In addition, the “Ratio CC50/IC50” value in data set [4] was 0.9.

In the case of `O=c1cc(C#CCCO)c2cccc([N+](=O)[O-])c2[nH]1`, the IC50 in the data set on Leishmania donovani [2] (setting [6]) came to 21.8 µM. The same compound yielded a CC50 at 72 h in data set [3] of 15.9 µM. For the same compound, the “Ratio CC50/IC50” value in data set [4] is 0.7.

Regarding `CCC(O)CC#Cc1cc(=O)[nH]c2c([N+](=O)[O-])cccc12` (stereo not given), in the data set with Leishmania donovani [2] (setting [6]), the half-maximal inhibitory concentration (IC50) is 16.7 µM. The compound also yielded a CC50 at 72 h in data set [3] of 3.8 µM. In data set [4], the “Ratio CC50/IC50” value is 0.2.

Turning to `O=c1cc(-c2ccccc2)c2cccc([N+](=O)[O-])c2[nH]1`, the IC50 in the data set with Leishmania donovani [2] (setting [6]) was found to be 14.7 µM. Moreover, the CC50 at 72 h in data set [3] is 31.9 µM. Also, the “Ratio CC50/IC50” value in data set [4] is 2.2.

Take `O=c1cc(-c2ccco2)c2cccc([N+](=O)[O-])c2[nH]1`: the IC50 with Leishmania donovani [2] (setting [6]) is more than 5 µM. This compound gave a 50% cytotoxic concentration (CC50) at 72 h in data set [3] of more than 31.3 µM.

In the case of `Cc1ccc(-c2cc(=O)[nH]c3c([N+](=O)[O-])cccc23)s1`, the IC50 with Leishmania donovani [2] (setting [6]) was more than 5 µM. Also, the CC50 at 72 h in data set [3] was more than 15.6 µM.

`O=c1cc(-c2cccnc2)c2cccc([N+](=O)[O-])c2[nH]1`: in the data set with Leishmania donovani [2] (setting [6]), the IC50 was more than 50 µM. In data set [3], this compound displayed a CC50 at 72 h of 10.1 µM. Also, the “Ratio CC50/IC50” value in data set [4] is on record as less than 1.

As to `O=c1cc(-c2ccncc2)c2cccc([N+](=O)[O-])c2[nH]1`, in the data set on Leishmania donovani [2] (setting [6]), the IC50 worked out at 77.2 µM. In data set [3], this compound registered a CC50 at 72 h of 15.7 µM. Besides, the “Ratio CC50/IC50” value in data set [4] is 0.2.

In the case of `O=c1cc(-c2ccc(C(F)(F)F)cc2)c2cccc([N+](=O)[O-])c2[nH]1`, the IC50 with Leishmania donovani [2] (setting [6]) is 6.1 µM; with Leishmania donovani [1], more than 20 µM; in the data set on Leishmania infantum, 11.8 µM; in data set [5], 33.4 µM; in the data set on THP-1 it was more than 31.3 µM. The compound further yielded a CC50 at 72 h in data set [3] of 42.7 µM. For the same compound, the “Ratio CC50/IC50” value in data set [4] turned out to be 7.

For the compound `O=c1cc(-c2ccc(Cl)cc2)c2cccc([N+](=O)[O-])c2[nH]1`, the IC50 with Leishmania donovani [2] (setting [6]) amounted to 4.2 µM. Besides, it took 16.1 µM to reach half-maximal cytotoxicity in data set [3] (CC50 at 72 h). Also, the “Ratio CC50/IC50” value in data set [4] came to 3.8.

Regarding `O=c1cc(-c2ccc(Br)cc2)c2cccc([N+](=O)[O-])c2[nH]1`, the IC50 in the data set with Leishmania donovani [2] (setting [6]) was 3.3 µM; in the data set on Leishmania donovani [1], more than 15.6 µM; in the data set on Leishmania infantum, more than 20 µM; in data set [5] it was 9 µM; in the data set with THP-1 it was more than 31.3 µM. This compound yielded a CC50 at 72 h in data set [3] of more than 31.3 µM. For the same compound, in data set [4], the “Ratio CC50/IC50” value is listed as more than 9.5.

Consider `O=c1cc(-c2ccc(F)cc2)c2cccc([N+](=O)[O-])c2[nH]1`, for which the IC50 in the data set on Leishmania donovani [2] (setting [6]) came out at 28 µM. The compound also displayed a CC50 at 72 h in data set [3] of 36.1 µM. Moreover, the “Ratio CC50/IC50” value in data set [4] is 1.3.

On to `Cc1ccc(-c2cc(=O)[nH]c3c([N+](=O)[O-])cccc23)cc1`, for which, in the data set with Leishmania donovani [2] (setting [6]), the IC50 turned out to be 9.1 µM. In addition, in data set [3], half-maximal cytotoxicity (CC50 at 72 h) was put at 31 µM. In data set [4], the “Ratio CC50/IC50” value worked out at 3.4.

On to `COc1ccc(-c2cc(=O)[nH]c3c([N+](=O)[O-])cccc23)cc1`, for which the IC50 in the data set on Leishmania donovani [2] (setting [6]) stood at 28 µM. This compound had a CC50 at 72 h in data set [3] of 37.1 µM. Besides, the “Ratio CC50/IC50” value in data set [4] was determined as 1.3.

Take `O=c1cc(-c2cccc(C(F)(F)F)c2)c2cccc([N+](=O)[O-])c2[nH]1`: the IC50 with Leishmania donovani [2] (setting [6]) was more than 5 µM. Half-maximal cytotoxicity in data set [3] (CC50 at 72 h) was put at 14.7 µM. The “Ratio CC50/IC50” value in data set [4] is listed as less than 2.9.

Consider `CC(C)(C)OCc1cc(=O)[nH]c2c([N+](=O)[O-])cccc12`, for which the IC50 in the data set with Leishmania donovani [2] (setting [6]) is more than 50 µM. For the same compound, half-maximal cytotoxicity in data set [3] (CC50 at 72 h) was put at 5.3 µM. The “Ratio CC50/IC50” value in data set [4] was less than 0.1.

Regarding `CCCCCCCCCCCCc1cc(=O)[nH]c2c([N+](=O)[O-])cccc12`, the IC50 entry with Leishmania donovani [2] is recorded as “ND(Insoluble)”. For the same compound, the CC50 result in the data set on HepG2 is reported as “ND(Insoluble)”.

Regarding `C[C@@H]1[C@H](O)[C@@H](C)/C=C/C=C/C=C/C=C/C=C/C=C/C=C/[C@H](O[C@@H]2O[C@H](C)[C@@H](O)[C@H](N)[C@@H]2O)C[C@@H]2O[C@](O)(C[C@@H](O)C[C@@H](O)[C@H](O)CC[C@@H](O)C[C@@H](O)CC(=O)O[C@H]1C)C[C@H](O)[C@H]2C(=O)O` [AMPHOTERICIN B], the IC50 with Leishmania donovani [1] worked out at 0.16 µM; in the data set with Leishmania infantum it was 0.06 µM; in data set [5], 2.5 µM; in the data set on THP-1, 8.4 µM.

Compound `COc1cccc2c1C(=O)c1c(O)c3c(c(O)c1C2=O)C[C@@](O)(C(=O)CO)C[C@@H]3O[C@H]1C[C@H](N)[C@H](O)[C@H](C)O1` [DOXORUBICIN] had an IC50 in data set [5] of 0.06 µM.

What is called EC50 is the concentration giving half of the maximal effect. For `CSc1ccc(OCc2ncc([N+](=O)[O-])n2C)cc1` [FEXINIDAZOLE], the EC50 in the data set with Leishmania donovani [1] was determined as 2.8 µM.

For `CCCCCCCCCCCCCCCCOP(=O)([O-])OCC[N+](C)(C)C` [MILTEFOSINE], the IC50 in the data set with Leishmania donovani [1] came to 6.8 µM; in the data set on Leishmania infantum it was 4.2 µM; in data set [5], 90.4 µM; with THP-1, 40.5 µM.

For `N=C(N)c1ccc(OCCCCCOc2ccc(C(=N)N)cc2)cc1` [PENTAMIDINE], in data set [4], the “Ratio CC50/IC50” value came out at 0.4. Moreover, the IC50 is more than 20 µM with Leishmania donovani [1], more than 20 µM with Leishmania infantum and 1 µM in data set [5].

`CCN(CC)CCCCCCNc1cc(OC)cc2c(C)ccnc12` [SITAMAQUINE]: the IC50 in the data set on Leishmania donovani [1] was 1 µM.
